Drawing on patent US20260226073A1 (AURIGENE ONCOLOGY LIMITED, priority 2023, published 2026), this text covers IC50 for 52 compounds.

Structures are written as SMILES.

T1 sequence (Q13191 39-426): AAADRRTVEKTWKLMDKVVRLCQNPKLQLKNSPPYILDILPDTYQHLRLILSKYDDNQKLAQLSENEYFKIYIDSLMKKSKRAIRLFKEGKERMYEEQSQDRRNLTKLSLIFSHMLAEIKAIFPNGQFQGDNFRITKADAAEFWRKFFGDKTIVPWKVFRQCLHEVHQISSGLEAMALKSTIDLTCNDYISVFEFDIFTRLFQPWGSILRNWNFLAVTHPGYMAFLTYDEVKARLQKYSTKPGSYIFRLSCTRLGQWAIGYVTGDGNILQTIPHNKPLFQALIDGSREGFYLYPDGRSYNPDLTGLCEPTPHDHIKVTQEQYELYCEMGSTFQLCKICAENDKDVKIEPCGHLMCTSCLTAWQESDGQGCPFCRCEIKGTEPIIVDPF

This experiment has as its target T1, human recombinant CBL-b (human Biotin CBL-b recombinant protein a.a. 39-426) (Homo sapiens, UniProt Q13191).
T1 construct: human Biotin CBL-b recombinant protein a.a; 39-426; Biotin (biotinylated); made in house
Kind of experiment: Biochemical assay for CBL-b inhibition (ligand displacement TR-FRET). It counts as binding. Particulars: 50 nM CBL-b, 0.3 μM Bodipy FL-Probe, read-out: IC50 (CBL-b inhibition, group). As for the experimental part: The inhibitory activity of the test compounds was assessed by Ligand displacement TR-FRET assay. The human recombinant CBL-b (human Biotin CBL-b recombinant protein a.a. 39-426; synthesised in-house) was diluted in enzyme assay buffer (20 mM HEPES, 150 mM NaCl, 0.01% Triton X, 0.01% BSA, 0.5 mM TCEP) in a 10 μl volume and plated in 384-well plates (Cat #781075, Greiner) to a final concentration of 50 nM. The enzyme/compound mixture was incubated at RT for 60 min. The Bodipy FL-Probe described in WO 2020/210508 (synthesized in-house) diluted in enzyme assay buffer was added to the plate and incubated for 60 min RT, the final probe concentration was 0.3 μM. After 60 min incubation, 10 μl of detection mix (Terbium Streptavidin, (Cat #PV3576, Invitrogen) diluted in 1× Lance buffer) was added and incubated for 60 min at room temperature. Time-resolved fluorescence (excitation, 320 nm; emission donor, 615 nm; emission acceptor, 665 nm) was monitored by using 2030 multilabel reader Victor5 (PerkinElmer). The IC50 (concentration for half maximal inhibition) and % maximum inhibition of the compounds were estimated by fitting the dose response data to a sigmoidal curve fitting equation using Graph pad Prism software V. 8.
A general note: In TR-FRET formats the signal depends on donor and acceptor labels being close together.
In general, IC50 refers to the concentration needed to halve the response being measured. On to `CC1CCCN1Cc1cc(Cl)nc(N2Cc3ccc(C4(Cc5nncn5C)COC4)cc3C2=O)c1` (stereo not shown) [Compound 200], for which the concentration for half-maximal inhibition (IC50) fell in the range of 300 to 5000 nM. As for `Cn1cnnc1CC1(c2ccc3c(c2)C(=O)N(c2cc(CNCc4ccccn4)cc(Cl)n2)C3)COC1` [Compound 203], the IC50 lay within 80 to 300 nM. The value for `Cn1cnnc1CC1(c2ccc3c(c2)C(=O)N(c2cc(CNCC4(C(F)(F)F)CC4)cc(Cl)n2)C3)COC1` [Compound 204] was 80 to 300 nM; that for `Cn1cnnc1CC1(c2ccc3c(c2)C(=O)N(c2cc(CNCc4ncco4)cc(Cl)n2)C3)COC1` [Compound 208] was 300 to 5000 nM. The figure for `Cn1cc(CNCc2cc(Cl)nc(N3Cc4ccc(C5(Cc6nncn6C)COC5)cc4C3=O)c2)cn1` [Compound 211] is 300 to 5000 nM; for `Cn1ccc(CNCc2cc(Cl)nc(N3Cc4ccc(C5(Cc6nncn6C)COC5)cc4C3=O)c2)n1` [Compound 212] it is 300 to 5000 nM; for `Cc1ccc(CNCc2cc(Cl)nc(N3Cc4ccc(C5(Cc6nncn6C)COC5)cc4C3=O)c2)o1` [Compound 226] it is 80 to 300 nM. Take `Cn1cnnc1CC1(c2ccc3c(c2)C(=O)N(c2cc(CNC(C)(C)C4CC4)cc(Cl)n2)C3)COC1` [Compound 228]: the IC50 is 300 to 5000 nM. The value for `Cc1cccc(CNCc2cc(Cl)nc(N3Cc4ccc(C5(Cc6nncn6C)COC5)cc4C3=O)c2)n1` [Compound 229] was 300 to 5000 nM; that for `Cn1cnnc1CC1(c2ccc3c(c2)C(=O)N(c2cc(CNC45CC(C4)C5)cc(Cl)n2)C3)COC1` [Compound 235] was 80 to 300 nM. The figure for `Cc1ccnc(CNCc2cc(Cl)nc(N3Cc4ccc(C5(Cc6nncn6C)COC5)cc4C3=O)c2)c1` [Compound 236] is 300 to 5000 nM; for `Cn1cnnc1CC1(c2ccc3c(c2)C(=O)N(c2cc(CNc4ccccn4)cc(Cl)n2)C3)COC1` [Compound 238] it is 80 to 300 nM; for `Cn1cnnc1CC1(c2ccc3c(c2)C(=O)N(c2cc(CNCC4(C#N)CCC4)cc(Cl)n2)C3)COC1` [Compound 243] it is 80 to 300 nM.

For `CC1CCNC(c2cc(Cl)nc(N3Cc4ccc(C5(Cc6nncn6C)COC5)cc4C3=O)c2)C1` (stereo not shown) [Compound 249], the IC50 was in the range of 300 to 5000 nM. The value for `CC1CCC(CNCc2cc(Cl)nc(N3Cc4ccc(C5(Cc6nncn6C)COC5)cc4C3=O)c2)O1` (stereo not shown) [Compound 250] was 80 to 300 nM. The figure for `CCCC(Cc1nncn1C)c1ccc2c(c1)C(=O)N(c1cc(CNCC3CC3)cc(Cl)n1)C2` (stereo not shown) [Compound 252] is 80 to 300 nM; for `COc1cc(CNCC2CCC2)cc(N2Cc3ccc(C(C)Cc4nncn4C)cc3C2=O)n1` (stereo not shown) [Compound 254] it is 80 to 300 nM; for `Cc1cc(CNCC2CC2)cc(N2Cc3ccc(-c4ccc(F)c(F)c4-c4nncn4C)cc3C2=O)n1` [Compound 257] it is 300 to 5000 nM.

Take `Cc1cc(CN2CCC3(CCC3)C2)cc(N2Cc3ccc(-c4ccc(F)cc4-c4nncn4C)cc3C2=O)n1` [Compound 258]: the IC50 is less than 80 nM.

On to `Cc1cc(CNCC2CC2)cc(N2Cc3ncc(-c4ccc(Cl)cc4-c4nncn4C)cc3C2=O)n1` [Compound 264], for which the IC50 is 80 to 300 nM.

As for `Cc1cc(CNCC2CC2)cc(N2Cc3ccc(-c4cccnc4-c4nncn4C)cc3C2=O)n1` [Compound 266], the IC50 fell in the range of 300 to 5000 nM. Regarding `Cc1cc(CNCC2CC2)cc(N2Cc3ccc(-c4cc(F)c(F)cc4-c4nncn4C)cc3C2=O)n1` [Compound 267], the IC50 lay within 80 to 300 nM. The value for `Cc1cc(CNCC2CC2)cc(N2Cc3ccc(-c4ccc(Cl)cc4-c4nnc5ccccn45)cc3C2=O)n1` [Compound 268] was 300 to 5000 nM; that for `Cc1cc(CNCC2CC2)cc(N2Cc3ccc(-c4cc(Cl)ccc4-c4nncn4C)cc3C2=O)n1` [Compound 270] was 300 to 5000 nM. In the case of `Cc1cc(CNCC2CC2)cc(N2Cc3ccc(-c4ccc(Cl)cc4-c4cc[nH]n4)cc3C2=O)n1` [Compound 271], the IC50 lay within 80 to 300 nM.

In the case of `Cc1cc(CNCC2CC2)cc(N2Cc3ccc(-c4ccc(C(F)(F)F)cc4-c4nncn4C)cc3C2=O)n1` [Compound 272], the IC50 lay within 80 to 300 nM.

In the case of `Cc1cc(CNC(C)(C)CCO)cc(N2Cc3ccc(-c4ccc(Cl)cc4-c4nncn4C)cc3C2=O)n1` [Compound 276], the IC50 was 80 to 300 nM. The value for `Cc1cc(CNS(C)(=O)=O)cc(N2Cc3ccc(-c4ccc(F)cc4-c4nncn4C)cc3C2=O)n1` [Compound 283] was 80 to 300 nM. With `Cc1cc(CN[S+]([O-])C(C)(C)C)cc(N2Cc3ccc(-c4ccc(F)cc4-c4nncn4C)cc3C2=O)n1` (stereo not shown) [Compound 285], the IC50 lay in the range of 300 to 5000 nM.

Regarding `Cc1cc(CN2CCC[C@@H]2CO)cc(N2Cc3ccc(-c4ccc(F)cc4-c4nncn4C)cc3C2=O)n1` [Compound 286], the IC50 lay within 80 to 300 nM.

As for `Cc1cc(CNCC2CC2)cc(N2Cc3ccc(-c4ccc(F)cc4-c4ncco4)cc3C2=O)n1` [Compound 287], the IC50 lay in the range of 80 to 300 nM. Consider `Cc1cc(CN2CCC[C@H]2CO)cc(N2Cc3ccc(-c4ccc(F)cc4-c4nncn4C)cc3C2=O)n1` [Compound 288], for which the IC50 was in the range of 300 to 5000 nM. The figure for `Cc1cc(CNCC2CC2)cc(N2Cc3ccc(-c4ccc(F)cc4-c4nocc4C)cc3C2=O)n1` [Compound 289, 2-(4-(((Cyclopropylmethyl)amino)methyl)-6-methylpyridin-2-yl)-6-(4-fluoro-2-(4-methylisoxazol-3-yl)phenyl)isoindolin-1-one] is less than 80 nM; for `CO[C@H]1CCN(Cc2cc(C)nc(N3Cc4ccc(-c5ccc(F)cc5-c5nncn5C)cc4C3=O)c2)C1` [Compound 290] it is 300 to 5000 nM; for `Cc1cc(CNCC2(O)COC2)cc(N2Cc3ccc(-c4ccc(F)cc4-c4nncn4C)cc3C2=O)n1` [Compound 291] it is 80 to 300 nM.

Regarding `Cc1cc(CNCC2(C)COC2)cc(N2Cc3ccc(-c4ccc(F)cc4-c4nncn4C)cc3C2=O)n1` [Compound 292], the IC50 was in the range of 80 to 300 nM.

For the compound `Cc1cc(CN[C@H](CO)C(C)C)cc(N2Cc3ccc(-c4ccc(F)cc4-c4nncn4C)cc3C2=O)n1` [Compound 297], the IC50 fell in the range of 80 to 300 nM. The value for `Cc1cc(CNC(C)(C)C)cc(N2Cc3ccc(-c4ccc(F)cc4-c4nncn4C)cc3C2=O)n1` [Compound 299] was 300 to 5000 nM; that for `Cc1cc(CNCCO)cc(N2Cc3ccc(-c4ccc(F)cc4-c4nncn4C)cc3C2=O)n1` [Compound 301] was 80 to 300 nM.

As to `Cc1cc(CN(C)CC2CC2)cc(N2Cc3ccc(-c4ccc(F)cc4-c4nncn4C)cc3C2=O)n1` [Compound 312], the IC50 was less than 80 nM.

As to `COCCN(Cc1cc(C)nc(N2Cc3ccc(-c4ccc(F)cc4-c4nncn4C)cc3C2=O)c1)CC1CC1` [Compound 313], the IC50 fell in the range of 300 to 5000 nM. As for `Cc1cc(CNCC2(CO)CC2)cc(N2Cc3ccc(-c4ccc(F)cc4-c4nncn4C)cc3C2=O)n1` [Compound 316], the IC50 fell in the range of 80 to 300 nM. As for `CCN1CCC[C@@H]1CNCc1cc(C)nc(N2Cc3ccc(-c4ccc(F)cc4-c4nncn4C)cc3C2=O)c1` [Compound 317], the IC50 lay within 300 to 5000 nM. The value for `Cc1cc(CNCC(O)CN)cc(N2Cc3ccc(-c4ccc(F)cc4-c4nncn4C)cc3C2=O)n1` (stereo not shown) [Compound 318] was 300 to 5000 nM; that for `Cc1cc(CN[C@H](CO)CC(C)C)cc(N2Cc3ccc(-c4ccc(F)cc4-c4nncn4C)cc3C2=O)n1` [Compound 322] was 80 to 300 nM. Regarding `Cc1cc(CNC(C2CC2)C(F)(F)F)cc(N2Cc3ccc(-c4ccc(F)cc4-c4nncn4C)cc3C2=O)n1` (stereo not shown) [Compound 324], the IC50 was 300 to 5000 nM. With `CCC(NCc1cc(C)nc(N2Cc3ccc(-c4ccc(F)cc4-c4nncn4C)cc3C2=O)c1)C(=O)NC` (stereo not shown) [Compound 327], the IC50 is 300 to 5000 nM. The figure for `Cc1cc(CN)cc(N2Cc3ccc(-c4ccc(F)cc4-c4nncn4C)cc3C2=O)n1` [Compound 331, 2-(4-(Aminomethyl)-6-methylpyridin-2-yl)-6-(4-fluoro-2-(4-methyl-4H-1,2,4triazol-3-yl)phenyl)isoindolin-1-one] is 80 to 300 nM. The value for `C=C(c1cc(C)nc(N2Cc3ccc(-c4ccc(F)cc4-c4nncn4C)cc3C2=O)c1)c1cnn(C)c1` [Compound 332, 6-(4-Fluoro-2-(4-methyl-4H-1,2,4-triazol-3-yl)phenyl)-2-(6-methyl-4-(1-(1-methyl-1H-pyrazol-4-yl)vinyl)pyridin-2-yl)isoindolin-1-one] was 80 to 300 nM; that for `Cc1cc(C(C)c2cnn(C)c2)cc(N2Cc3ccc(-c4ccc(F)cc4-c4nncn4C)cc3C2=O)n1` (stereo not shown) [Compound 333, 6-(4-Fluoro-2-(4-methyl-4H-1,2,4-triazol-3-yl)phenyl)-2-(6-methyl-4-(1-(1-methyl-1H-pyrazol-4-yl)ethyl)pyridin-2-yl)isoindolin-1-one] was 300 to 5000 nM; that for `Cc1cc(C(C)c2nccn2C)cc(N2Cc3ccc(-c4ccc(F)cc4-c4nncn4C)cc3C2=O)n1` (stereo not shown) [Compound 334, 6-(4-Fluoro-2-(4-methyl-4H-1,2,4-triazol-3-yl)phenyl)-2-(6-methyl-4-(1-(1-methyl-1H-imidazol-2-yl)ethyl)pyridin-2-yl)isoindolin-1-one] was 300 to 5000 nM.

For `CN1CCC/C(=C/c2cc(Cl)nc(N3Cc4ccc(C5(Cc6nncn6C)COC5)cc4C3=O)c2)C1` [Compound 335, (Z)-2-(6-Chloro-4-((1-methylpiperidin-3-ylidene)methyl)pyridin-2-yl)-6-(3-((4-methyl-4H-1,2,4-triazol-3-yl)methyl)oxetan-3-yl)isoindolin-1-one], the IC50 lay within 80 to 300 nM.
